# Read-outs that look alike come from different tables or passages of the source.
# Legend:
# [1] = tested on: Caenorhabditis elegans (Bristol N2); test: C. elegans larval development and growth assay; details: for minimal effective concentration: Caenorhabditis elegans, read-out: LEC EXT: lowest effect concentration for extinction, a measure of nematode size
# [2] = tested on: Nrf2/ARE (ARE-bla HepG2 cells); test: ARE β-lactamase reporter gene assay; assay type: cell-based, human; details: Homo sapiens, HepG2; 16 h incubation; mean±SD of three experiments; read-out: ARE (HepG2) EC50
# [3] = tested on: Caenorhabditis elegans strain PE255; test: In vivo C. elegans ATP status assay; details: for minimal effective concentration: Caenorhabditis elegans, read-out: LEC LUM: lowest effect concentration for luminescence, a measure of nematode ATP content
# [4] = tested on: HepG2 cells; test: ROS-Glo hydrogen peroxide (ROS) assay; assay type: cell-based, human; details: Homo sapiens, HepG2; 2 h treatment; mean±SD of three experiments; read-out: ROS (HepG2) EC50
# [5] = tested on: HepG2 cells; test: Intracellular ATP content (cell viability) assay; assay type: cell-based, human; details: 40 h treatment, mean±SD of three experiments; for IC50: Homo sapiens, HepG2
# [6] = tested on: isolated rat liver mitochondria; test: Oxygen consumption, Clark-type oxygen electrode; assay type: biochemical; details: for I-ADP, % of control (O2 consumption rate) / I-sub, % of control (O2 consumption rate) / II-ADP, % of control (O2 consumption rate) / II-sub, % of control (O2 consumption rate): 100 µM, isolated rat liver mitochondria; for I-ADP, % of control (O2 consumption rate): glutamate/malate driven state 3 respiration; for I-sub, % of control (O2 consumption rate): glutamate/malate driven state 4 respiration; for II-ADP, % of control (O2 consumption rate): succinate-driven state 3 respiration; for II-sub, % of control (O2 consumption rate): succinate-driven state 4 respiration; for Potential Mechanism: mitochondrial respiration in isolated rat liver mitochondria, Clark type oxygen electrode, over tested concentrations
# [7] = tested on: HepG2 cells; test: cells; details: Homo sapiens; for Emax: HepG2, read-out: MMP assays efficacy (%) HepG2
# [8] = tested on: p53 (p53-bla HCT-116 cells); test: p53 β-lactamase reporter gene assay; assay type: cell-based, human; details: 16 h incubation; mean±SD of three experiments
# [9] = tested on: hNSC; test: MMP assay in human neural stem cells (hNSC); assay type: cell-based; details: Homo sapiens, Neural stem cell; 1 h treatment; fresh re-sourced stocks; mean±SD of three experiments; read-out: hNSC IC50 (MMP)
# [10] = tested on: rat primary hepatocytes; test: MMP assay in rat primary hepatocytes; details: for Rat hepatocytes (efficacy) (MMP): % of positive control, mean±SD of three experiments; for IC50: Rattus norvegicus, Hepatocyte; for MMP assays efficacy (%) Rat Hepatocytes: mean ± SD of three experiments
# [11] = tested on: HeLa cells expressing YFP-Parkin; test: Parkin translocation assay; assay type: cell-based, human; details: HeLa cells stably expressing YFP-Parkin; treated for 2 h
# [12] = tested on: HepG2 cells; details: cited from earlier work; for IC50: read-out: MMP assays IC50 (µM) qHTS-HepG2
# [13] = HepG2, 1 h, read-out: HepG2 IC50 Galactose (MMP)
# [14] = HepG2, 1 h, read-out: HepG2 IC50 Glucose (MMP)
# [15] = HepG2, read-out: MMP assays IC50 (µM) HepG2
# [16] = 1 h, read-out: Rat hepatocytes IC50 (MMP)
# [17] = read-out: MMP assays IC50 (µM) Rat Hepatocytes
structure (smiles),measurement,setting,value
NNc1nc(-c2ccc(N)cc2)cs1 [2-Hydrazino-4-(4-aminophenyl) thiazole],EXT: mean difference in nematode size relative to plate controls,[1]; 0.5 µM,0.05389
same,EXT: mean difference in nematode size relative to plate controls,[1]; 1 µM,0.002943
same,EXT: mean difference in nematode size relative to plate controls,[1]; 5 µM,-0.00605
same,EXT: mean difference in nematode size relative to plate controls,[1]; 10 µM,0.1893
same,EXT: mean difference in nematode size relative to plate controls,[1]; 25 µM,0.2089
same,EXT: mean difference in nematode size relative to plate controls,[1]; 50 µM,0.1347
same,EXT: mean difference in nematode size relative to plate controls,[1]; 75 µM,0.3557
same,EXT: mean difference in nematode size relative to plate controls,[1]; 100 µM,0.3701
same,minimal effective concentration,[1],25 µM
same,EC50,[2],10.5 ± 8.1 µM
same,LUM: mean difference in luminescence (ATP content) relative to plate controls,[3]; 0.5 µM,0.02471
same,LUM: mean difference in luminescence (ATP content) relative to plate controls,[3]; 1 µM,0.06159
same,LUM: mean difference in luminescence (ATP content) relative to plate controls,[3]; 5 µM,0.05233
same,LUM: mean difference in luminescence (ATP content) relative to plate controls,[3]; 10 µM,0.08412
same,LUM: mean difference in luminescence (ATP content) relative to plate controls,[3]; 25 µM,0.4284
same,LUM: mean difference in luminescence (ATP content) relative to plate controls,[3]; 50 µM,0.3261
same,LUM: mean difference in luminescence (ATP content) relative to plate controls,[3]; 75 µM,0.5564
same,LUM: mean difference in luminescence (ATP content) relative to plate controls,[3]; 100 µM,0.6002
same,minimal effective concentration,[3],25 µM
same,EC50,[4],25.4 ± 3.24 µM
same,IC50,"[5]; 5 mM glucose, read-out: ATP (HepG2, glucose) IC50",59.5 ± 23.5 µM
same,IC50,"[5]; 10 mM galactose, read-out: ATP (HepG2, galactose) IC50",60.8 ± 6.99 µM
same,"I-ADP, % of control (O2 consumption rate)",[6],105 (55.7) % of control
same,"I-sub, % of control (O2 consumption rate)",[6],109 (14.6) % of control
same,"II-ADP, % of control (O2 consumption rate)",[6],101 (68.1) % of control
same,"II-sub, % of control (O2 consumption rate)",[6],98 (21.3) % of control
same,Potential Mechanism,[6],Inactive
same,IC50,[7]; [13],18.5 ± 2.55 µM
same,IC50,[7]; [14],15.3 ± 1.76 µM
same,IC50,[7]; [15],0.4 µM
same,Emax,[7],85%
same,p53 (HCT-116) EC50,[8],Inactive
same,IC50,[9],1760 ± 570 nM
same,Rat hepatocytes (efficacy) (MMP),[10],−50.5±1.77%
same,IC50,[10]; [16],19.8 ± 11.5 µM
same,IC50,[10]; [17],3.55 ± 3.86 µM
same,MMP assays efficacy (%) Rat Hepatocytes,[10],-67±14%
same,Parkin recruitment,[11],Inactive
same,MMP assays efficacy (%) qHTS-HepG2,[12],-83±12%
same,IC50,[12],0.06 ± 0.02 µM
Nc1ccc2c(c1)C(=O)c1ccccc1C2=O [2-Aminoanthraquinone],EXT: mean difference in nematode size relative to plate controls,[1]; 0.5 µM,0.000738
same,EXT: mean difference in nematode size relative to plate controls,[1]; 1 µM,0.7865
same,EXT: mean difference in nematode size relative to plate controls,[1]; 5 µM,0.06113
same,EXT: mean difference in nematode size relative to plate controls,[1]; 10 µM,0.09116
same,EXT: mean difference in nematode size relative to plate controls,[1]; 25 µM,0.03934
same,EXT: mean difference in nematode size relative to plate controls,[1]; 50 µM,0.4385
same,EXT: mean difference in nematode size relative to plate controls,[1]; 75 µM,0.2071
same,EXT: mean difference in nematode size relative to plate controls,[1]; 100 µM,0.2541
same,minimal effective concentration,[1],100 µM
same,EC50,[2],3.93 ± 0.89 µM
same,LUM: mean difference in luminescence (ATP content) relative to plate controls,[3]; 0.5 µM,0.5241
same,LUM: mean difference in luminescence (ATP content) relative to plate controls,[3]; 1 µM,1.069
same,LUM: mean difference in luminescence (ATP content) relative to plate controls,[3]; 5 µM,1.958
same,LUM: mean difference in luminescence (ATP content) relative to plate controls,[3]; 10 µM,1.846
same,LUM: mean difference in luminescence (ATP content) relative to plate controls,[3]; 25 µM,1.929
same,LUM: mean difference in luminescence (ATP content) relative to plate controls,[3]; 50 µM,1.555
same,LUM: mean difference in luminescence (ATP content) relative to plate controls,[3]; 75 µM,1.569
same,LUM: mean difference in luminescence (ATP content) relative to plate controls,[3]; 100 µM,1.98
same,"LEC (lowest effect concentration), ATP assay",[3]; 24 h exposure,≤ 10 µM
same,minimal effective concentration,[3],0.5 µM
same,EC50,[4],4.72 ± 0.8 µM
same,"ATP (HepG2, glucose) IC50",[5]; 5 mM glucose,Inactive
same,"ATP (HepG2, galactose) IC50",[5]; 10 mM galactose,Inactive
same,"I-ADP, % of control (O2 consumption rate)",[6],101 (53.8) % of control
same,"I-sub, % of control (O2 consumption rate)",[6],98 (13.2) % of control
same,"II-ADP, % of control (O2 consumption rate)",[6],124 (83.8) % of control
same,"II-sub, % of control (O2 consumption rate)",[6],107 (23.2) % of control
same,Potential Mechanism,[6],Inactive
same,IC50,[7]; [13],8.98 ± 1.62 µM
same,IC50,[7]; [14],6.58 ± 0.9 µM
same,IC50,[7]; [15],1.26 µM
same,Emax,[7],85%
same,p53 (HCT-116) EC50,[8],Inactive
same,IC50,[9],1800 ± 830 nM
same,Rat hepatocytes (efficacy) (MMP),[10],−58.3±7.52%
same,IC50,[10]; [16],9.63 ± 3.17 µM
same,IC50,[10]; [17],3.57 ± 2.61 µM
same,MMP assays efficacy (%) Rat Hepatocytes,[10],-91±30%
same,Parkin recruitment,[11],Inactive
same,MMP assays efficacy (%) qHTS-HepG2,[12],-85±11%
same,IC50,[12],0.51 ± 0.29 µM
